Results: publication PMC9794608 (Frontiers in Veterinary Science, 2022)
Like-named read-outs stand apart in the source and are kept apart here.

Key:
[1] = Plasma pharmacokinetics after single and repeat oral dose, LC-MS/MS, non-compartmental analysis; assay type: in vivo, Beagle dogs; conditions: for Sapanisertib accumulation with repeat dosing: 0.1 mg/kg p.o. QOD; for Cmax: read-out: CMAX (sapanisertib in plasma)
Procedure: Laboratory Beagle dogs (Charles River Labs, Mattawan, MI) served as surrogates in testing compounds proposed for application in canine clinical cancer care. The animals were at least six months old and weighed 6.4–8.8 kg at the initiation of study. They had routine veterinary care and had not been used in any previous studies. The study was conducted in AAALAC-accredited animal facilities [Charles River Laboratories, Inc., Mattawan, MI; NIH Office of Laboratory Animal Welfare Assurance approval (https://olaw.nih.gov/assured/app/index.html)], under review, monitoring, and approval of the facility's Institutional Animal Care and Use Committee according to U.S. Public Health Service national guidelines and regulations for the care and use of laboratory animals. The study was not designed to incorporate Good Laboratory Practices (GLP) regulatory criteria. Animals on study were monitored daily or more frequently and body weights were recorded, while periodic specimens were obtained for laboratory analyses. Clinical pathology analyses were included for hematology, serum chemistry, coagulation, urinalysis, and chemical bioanalysis was accomplished for pharmacokinetics (PK) (Table 1, repeat dose study) (Charles River Laboratories, Mattawan, MI).
Six male and six female beagle dogs were enrolled in a parallel, three-arm, fixed, repeat oral-dose study. […] In Group 2, two male (23001, 23002) and two female (23501, 23502) dogs were given sapanisertib alone (0.1 mg/kg) every other day (p.o., QOD). […] All dogs were dosed on study day 1 to obtain single dose PK samples, and then dosed serially days 4–20. Dogs were fasted overnight prior to dosing and fed ad libitum 2 h (hrs) following dose administration.
Plasma samples for PK were collected at pre-dose (-7 days), then beginning day 1 following the initial dose of each study group at 1, 2, 4, 8, 24, 48, and 72 h. On day 6, plasma samples were collected pre-dose, then 1, 2, 4, 8, and 24 h post-dose. On days 10 and 15, a 2-h post-dose sample was collected. On day 20, plasma samples were drawn at pre-dose and 1, 2, 4, 8, 24, 48, and 72 h post-dose. Treatment schedule and clinical pathology specimen sampling intervals are outlined in Table 1.
Each 50 μL aliquot of known concentration standards, quality control sample, or study sample was mixed with 200 μL of working internal standard solution (10 ng/mL in acetonitrile). The samples were vortexed and centrifuged. A 150 μL aliquot of the resulting supernatant was transferred to a clean 96-well plate, evaporated, and reconstituted with 100 μL of water/acetonitrile (40/60, v/v). An aliquot was injected onto an LC-MS/MS XBridge BEH C18 liquid chromatography system (Waters Associates, Framingham, MA) having 50 x 2.1 mm (2.5 μm particle size) column with an isocratic flow consisting of water/formic acid (100/0.1, v/v) and acetonitrile/formic acid (100/0.1, v/v) at a flow rate of 0.3000 mL/min for analysis. The analyte and internal standard were detected using an API 6500+ triple quadrupole LC-MS/MS system (AB Sciex, LLC, Framingham, MA) equipped with an ESI (TurboIonSpray®) ionization source operated in the positive ion mode.
A non-compartmental approach to PK analysis was employed using Phoenix WinNonlin v8.3 (Certara Corp, Cary, NC) that was validated per FDA 21CFR Part 11 regulations. The maximum plasma concentration (CMAX) and the time of maximum plasma concentration (TMAX) were recorded as observed values. […] AUCINF (the AUC from time zero to infinity) was calculated by extrapolation by dividing CLAST (the last measurable drug concentration) by the rate constant of the terminal phase, λZ. This constant was determined from the slope of the terminal phase of the concentration-time curve using uniformly-weighted least-squares as the estimation procedure and acceptance criteria of (i) adjusted r^2 > 0.8, (ii) includes > 3 time points in the terminal phase occurring after the TMAX. […]

laboratory beagle dogs = assay: Sapanisertib escalating oral dose tolerability assessment; assay type: in vivo
Procedure: Determining a 0.1 mg/kg sapanisertib dosage for repeat dose studies was based upon extrapolation of previous studies in mice ([13], [20]), leading to initial evaluation of escalating individual oral doses of 0.1, 0.5, 0.65, and 0.8 mg/kg in one male (M), and one female (F) dog with a ≥3-day washout period between doses.
The initial efforts with sapanisertib focused on dose selection for ultimate testing in combination with orally administered trametinib dimethyl sulfoxide (trametinib) in nontumor-bearing laboratory beagle dogs. […] Sapanisertib dose escalation consisted of increased individual doses beginning with 0.10 mg/kg sapanisertib followed by a washout period of at least 3 days, and up to 7 days, between doses (Figure 2). Dogs lost body weight when dosed with ≥0.5 mg/kg sapanisertib. By day 23, the male dog had lost approximately 19% of initial body weight, while the female dog lost 7% body weight, and sapanisertib exposure was discontinued (Figure 2A). There was a trend toward recovery of modest amounts of body weight in these two dogs with the passage of sufficient time, post dose.
Figure 2 Sapanisertib escalating oral dose tolerability assessment in dogs. […] (A) Body weight (b.w.) changes with respect to time of first dose, in response to dosing as indicated. (B) Sapanisertib impact on select clinical pathology parameters for the testing days shown on x axis. Values on the y axis represent pre-treatment samples (0 days). Yellow-shaded area indicates reference range of values for normal healthy beagle dogs (Charles River Labs). Serum enzymes: ALT, alanine aminotransferase; AST, aspartate aminotransferase; ALP, alkaline phosphatase.

mice = system: mice; parameters: method as in PMID 32943547; conditions: cited from earlier work
[2] = First dose (Day 1), sapanisertib 0.1 mg/kg p.o., mean (%CV), n = 4
[3] = canine sapanisertib only group 0.1 mg/kg versus human cancer patients receiving 4 mg oral sapanisertib
[4] = by day 23, escalating oral doses 0.1, 0.5, 0.65, 0.8 mg/kg
[5] = ≥ 0.5 mg/kg, both sexes, as low as

- Sapanisertib accumulation with repeat dosing ([1]; day 1 to day 20): did not display accumulation
- Sapanisertib accumulation with repeat dosing ([1]; day 1 to day 20, listed as sapanisertib): not observed to significantly accumulate
- AUCINF (sapanisertib in plasma) [1, 2]: 247.5 (41%) hr^*ng/mL
- V/F (sapanisertib) [1, 2]: 3.85 (34%) L/kg
- V/F (sapanisertib) ([1]; Steady-state (Day 20), sapanisertib 0.1 mg/kg p.o. QOD, mean (%CV), n = 4): 3.97 (33%) L/kg
- Sapanisertib plasma level at day 15 ([1]; approximately 24 h from the previous dose, Groups 2,3): minimal detectable
- half-life ([1]; both sexes, beagle, dog, plasma, po, 0.1 mg/kg, 0.1 mg/kg p.o., day 1 to day 20, read-out: Sapanisertib half-life (range)): 4.8 to 6.8 h
- AUC(0-inf) ([1]; both sexes, beagle, dog, plasma, po, 0.1 mg/kg, First dose (Day 1), sapanisertib 0.1 mg/kg p.o., mean (%CV), n = 4, read-out: AUCINF (sapanisertib in plasma)): 248 ng·h/mL
- half-life ([1]; both sexes, beagle, dog, plasma, po, 0.1 mg/kg, First dose (Day 1), sapanisertib 0.1 mg/kg p.o., mean (%CV), n = 4, read-out: T1/2 (sapanisertib in plasma) (converted)): 5.94 h
- Tmax ([1]; both sexes, beagle, dog, plasma, po, 0.1 mg/kg, First dose (Day 1), sapanisertib 0.1 mg/kg p.o., median (range), n = 4, read-out: TMAX (sapanisertib in plasma)): 2 h
- Cmax ([1]; both sexes, beagle, dog, plasma, po, 0.1 mg/kg, Steady-state (Day 6), sapanisertib 0.1 mg/kg p.o. QOD, mean (%CV), n = 4): 28.1 ng/mL
- Cmax ([1]; both sexes, beagle, dog, plasma, po, 0.1 mg/kg, Steady-state (Day 10), sapanisertib 0.1 mg/kg p.o. QOD, mean (%CV), n = 4): 23.6 ng/mL
- AUC ([1]; both sexes, beagle, dog, plasma, po, 0.1 mg/kg, Steady-state (Day 20), sapanisertib 0.1 mg/kg p.o. QOD, mean (%CV), n = 4, read-out: AUCTAU (sapanisertib in plasma)): 250 ng·h/mL
- Cmax ([1]; both sexes, beagle, dog, plasma, po, 0.1 mg/kg, Steady-state (Day 20), sapanisertib 0.1 mg/kg p.o. QOD, mean (%CV), n = 4): 27.4 ng/mL
- half-life ([1]; both sexes, beagle, dog, plasma, po, 0.1 mg/kg, Steady-state (Day 20), sapanisertib 0.1 mg/kg p.o. QOD, mean (%CV), n = 4, read-out: T1/2 (sapanisertib in plasma) (converted)): 6.28 h
- Tmax ([1]; both sexes, beagle, dog, plasma, po, 0.1 mg/kg, Steady-state (Day 20), sapanisertib 0.1 mg/kg p.o. QOD, median (range), n = 4, read-out: TMAX (sapanisertib in plasma)): 2 h
- Tmax ([1]; both sexes, beagle, dog, plasma, po, 0.1 mg/kg, dogs, 0.1 mg/kg p.o., read-out: Sapanisertib Tmax on average): 2 h
- CL/F ([1]; both sexes, beagle, dog, plasma, po, First dose (Day 1), sapanisertib 0.1 mg/kg p.o., mean (%CV), n = 4): 7.83 mL/min/kg
- Cmax ([1]; both, beagle, dog, plasma, po, 0.1 mg/kg, First dose (Day 1), sapanisertib 0.1 mg/kg p.o., alone or with trametinib […] (see label), arithmetic mean (%CV), n = 4): 26.3 ng/mL
- Mean animal to human exposure ratio, AUCINF [1, 3]: 1.31
- Mean animal to human exposure ratio, CMAX [1, 3]: 1.11
- Mean animal to human exposure ratio, T1/2 [1, 3]: 0.91
- Sapanisertib absorption time (range) ([1]; initial and repeat dose, 0.1 mg/kg p.o.): 1 to 4 h
SMILES: CC(C)n1nc(-c2ccc3oc(N)nc3c2)c2c(N)ncnc21 [Sapanisertib]
- Serum chloride, times the pre-study value (laboratory beagle dogs; 0.8 mg/kg, male): 0.89 x
- Serum sodium, times the pre-study value (laboratory beagle dogs; 0.8 mg/kg, male): 0.98 x
- Loss of body weight, female dog (laboratory beagle dogs; [4]): 7%
- Loss of initial body weight, male dog (laboratory beagle dogs; [4]): approximately 19%
- Dose at which dogs lost body weight (laboratory beagle dogs; individual oral doses, 1 male and 1 female): ≥ 0.5 mg/kg
- Red blood cell reticulocyte counts (laboratory beagle dogs; ≥ 0.5 mg/kg, both sexes): moderate to marked decreases
- Serum cholesterol concentrations (laboratory beagle dogs; ≥ 0.5 mg/kg, both sexes): minimal to mild increases
- Alanine aminotransferase (ALT), times the pre-study value (laboratory beagle dogs; [5]): ≥ 0.41 x
- Aspartate aminotransferase (AST), times the pre-study value (laboratory beagle dogs; [5]): ≥ 0.68 x
- Serum alkaline phosphatase (ALP), times the pre-study value (laboratory beagle dogs; [5]): ≥ 0.36 x
- Kidney findings in mice, every other day dosing (mice; mice, […] sapanisertib every other day): did not exhibit substantive AKI
- Kidney findings in mice, daily dosing (mice; some mice given […] sapanisertib daily): acute kidney injury (AKI) with moderate histopathological cortical tubular epithelial degeneration and necrosis
